Here are results for 45 sequences from the OligoGym collection.

After the bases stand the sugars from the 5' end (letter, count) and the backbone: PS all phosphorothioate, else s phosphorothioate and o phosphodiester by linkage. Methylation of C is not given here. e = 2'-O-(2-methoxyethyl) (MOE); k = constrained ethyl (cEt); d = 2'-deoxy (DNA); m = 2'-O-methyl

The data set addresses HSD17B13. Particulars: ASO, HepaRG.

Turning to “TTGAACAGTCTTAAAC (sugars k3 d1 m1 d8 k3, PS)”, the target mRNA inhibition (1 µM) is 11%. “TTGAACAGTCTTAAAC (sugars kkdddddddddkekek, PS)” had a target mRNA inhibition (1 µM) of 37%. With “TTGAATAGCAAGCCAA (sugars k3 d9 k3 e1, PS)”, the target mRNA inhibition (1 µM) was 33%.

Take TTGACATAACTTCATA (sugars k3 d10 k3, PS): the target mRNA inhibition (1 µM) amounted to 15%.

Sequence TTGACCTCAAATGTCT (sugars k3 d10 k3, PS) gave a target mRNA inhibition (1 µM) of 0%. Consider “TTGACTGCTGCTAGTG (sugars k3 d1 m1 d8 k3, PS)”, for which the target mRNA inhibition (1 µM) was 40%. TTGAGAGAACTTATAC (sugars k3 d10 k3, PS): the target mRNA inhibition (1 µM) was determined as 21%. Consider “TTGAGATAAAGCTGCC (sugars kkdddddddddkekek, PS)”, for which the target mRNA inhibition (1 µM) came to 2%. For the sequence “TTGAGATAAAGCTGCC (sugars kkkdddddkdddkkke, PS)”, the target mRNA inhibition (1 µM) was determined as 43%. Regarding “TTGAGTAGTGTAAGCT (sugars k3 d9 k3 e1, PS)”, under “1 µM”, the target mRNA inhibition turned out to be 40%. Where the note is “1 µM”, “TTGAGTTCTCCACTGC (sugars k3 d1 m1 d8 k3, PS)” came in with a target mRNA inhibition of 18%. For the setting “1 µM”, TTGATATACGATGGAA (sugars k3 d10 k3, PS) registered a target mRNA inhibition of 38%.

Take TTGATCTCTTAGCTGT (sugars k3 d10 k3, PS): the target mRNA inhibition (1 µM) worked out at 74%. With “TTGCAGAAATTCACCT (sugars k3 d1 m1 d8 k3, PS)”, the target mRNA inhibition (1 µM) was 29%.

Consider “TTGCAGAAATTCACCT (sugars kkdddddddddkekek, PS)”, for which, for the setting “1 µM”, the target mRNA inhibition was found to be 46%. Same read-out and setting: with “TTGCAGTTATTAGAAG (sugars kkdddddddddkekek, PS)” the figure was 27%. Sequence TTGCTGGAACAATATG (sugars k3 d10 k3, PS) displayed a target mRNA inhibition (1 µM) of 20%. TTGGAATGCTACTTGA (sugars k3 d10 k3, PS) had a target mRNA inhibition (0.02 µM) of 20%; a target mRNA inhibition (0.078 µM) of 33%; a target mRNA inhibition (0.313 µM) of 47%; a target mRNA inhibition (1 µM) of 72%; a target mRNA inhibition (1.25 µM) of 80%; a target mRNA inhibition (5 µM) of 83%. Sequence TTGGTAAGTATTCCAT (sugars k3 d10 k3, PS) returned a target mRNA inhibition (1 µM) of 20%. In the case of TTGGTGAACCCAGTAT (sugars k3 d10 k3, PS), for the setting “1 µM”, the target mRNA inhibition was 31%. With TTGGTGGACTTCAGAG (sugars k3 d10 k3, PS), the target mRNA inhibition (1 µM) was found to be 8%. Sequence TTGTAATCTTGAGGCA (sugars k3 d10 k3, PS) registered a target mRNA inhibition (1 µM) of 27%. For TTGTACCCTGTTCTCA (sugars k3 d10 k3, PS), the target mRNA inhibition (1 µM) was 64%. Sequence TTGTTACATCACCCAC (sugars k3 d10 k3, PS) gave a target mRNA inhibition (1 µM) of 34%.

In turn, “TTTAAAATAGAGTCGG (sugars k3 d9 k3 e1, PS)” displayed a target mRNA inhibition (1 µM) of 58%. As to TTTAAAATAGAGTCGG (sugars k3 d10 k3, PS), the target mRNA inhibition came out at 0% (0.02 µM); 0% (0.078 µM); 1% (0.313 µM); 69% (1 µM); 48% (1.25 µM); 77% (5 µM).

Turning to TTTAGAATACGCTGAG (sugars k3 d10 k3, PS), the target mRNA inhibition (1 µM) came out at 44%. As for TTTAGTATTTGGGTGT (sugars k3 d10 k3, PS), the target mRNA inhibition (1 µM) is 21%.

In turn, TTTAGTCAGGTAGAGT (sugars k3 d10 k3, PS) returned a target mRNA inhibition (1 µM) of 30%.

In turn, TTTAGTTAGAATAGTC (sugars k3 d10 k3, PS) gave a target mRNA inhibition (1 µM) of 15%. Take TTTCATAGCTCACTTA (sugars k3 d10 k3, PS): the target mRNA inhibition (1 µM) is 16%. As for TTTCATATCCAGTAGG (sugars k3 d10 k3, PS), the target mRNA inhibition (1 µM) turned out to be 36%. Consider TTTCGCTACTGTAGGC (sugars k3 d10 k3, PS), for which the target mRNA inhibition (1 µM) is 62%. Under “1 µM”, TTTTAACTACCCTCAC (sugars k3 d10 k3, PS) yielded a target mRNA inhibition of 2%. For TTTTAAGAGGCATGAA (sugars k3 d10 k3, PS), the target mRNA inhibition (1 µM) amounted to 53%. TTTTACTGGGATACTA (sugars k3 d10 k3, PS) showed a target mRNA inhibition (1 µM) of 27%. On the same count and under the same terms, the same measure for TTTTAGGGAGGTAGCT (sugars k3 d10 k3, PS): 39%. Sequence TTTTAGTCAGGTAGAG (sugars k3 d10 k3, PS) had a target mRNA inhibition (1 µM) of 3%.

In turn, TTTTATAGACTGGGTA (sugars k3 d10 k3, PS) came in with a target mRNA inhibition (1 µM) of 53%. TTTTATTGGGCCCAAT (sugars k3 d10 k3, PS) yielded a target mRNA inhibition (1 µM) of 18%.

For TTTTTAAGAGGCATGA (sugars k3 d10 k3, PS), under “1 µM”, the target mRNA inhibition is 60%. Same read-out and setting: with TTTTTAATACGACTTC (sugars k3 d10 k3, PS) the figure was 52%. TTTTTATTGGGCCCAA (sugars k3 d10 k3, PS) showed a target mRNA inhibition (1 µM) of 51%. In the case of TTTTTGAACCGTATTC (sugars k3 d10 k3, PS), the target mRNA inhibition (1 µM) came out at 56%. In turn, TTTTTGGACAAATGCC (sugars k3 d10 k3, PS) came in with a target mRNA inhibition (1 µM) of 50%.
